Consider 2 molecules from patent US12144791B2, “KRAS agonists, pharmaceutical compositions, and uses in managing cancer” (Emory University, priority 2019, dated 2024).

The subject of test [1] is A549 and H157. The test is described as follows: Annexin V/PI apoptosis, KRA-533 alone or with 3-MA. In kind it is cell-based, human. The note with it: 48 h, in combination with KRA-533. On the procedure: To determine whether autophagy plays a role in apoptosis induced by KRA-533, apoptosis was measured by FACS analysis of Annexin V/PI staining following treatments of A549 and H157 with KRA533 alone or in combination with autophagy inhibitor 3-MA for 48 h.

Test [2] has as its system A549 and H157 cells. The experiment in a line: Western blot of autophagy marker p62 with or without chloroquine. In kind it is cell-based, human. The note with it: 48 h, in combination with KRA-533. On the procedure: To assess whether the autophagy inhibitor regulates KRA-533-induced autophagy formation, A549 and H157 cells were treated with KRA-533 in the absence or presence of autophagy inhibitor chloroquine for 48 h, followed by Western blot analysis of the autophagy marker p62.

With `Cn1cnc(N)c2ncnc1-2` [3-MA, 3-methyladenine], the “KRA-533-induced apoptosis, 3-MA added” value in test [1] was “enhanced KRA-533-induced apoptosis”. `CCN(CC)CCCC(C)Nc1ccnc2cc(Cl)ccc12` (centres unmarked) [chloroquine, reference compound]: the “p62 expression, chloroquine added to KRA-533” value in test [2] is reported as “restored p62 expression by blocking KRA-533-induced p62 degradation”.
